# Reference: US10357537B2, “Cyclotides as immunosuppressive agents” (priority 2011, dated 2019)
# Bridge positions count the residues as written; N and C are the ends. Peptide text beside a SMILES is read from it.
# How the values were obtained:
# [1] = tested on: NFATc1 in splenic T-cells of naive mouse group; test: Western blot for NFATc1; assay type: cell-based; conditions: compared to V10K and MOG
# Experimental: (§1) FIG. 23. Effect of cyclotides on protein expression of NFAT1c. […] But instead of stimulating with PHA-L and PMA/ionomycin, one part of the cells was stimulated with PHA-L (10 μg/mL) and the other with PMA (50 ng/mL)/ionomycin (500 ng/mL) over night. […] Splenic T-cells isolated from naïve mouse group were stimulated as described above.
# (§2) Human T-cells provided by CCRI from A. Dohnal, PhD were stimulated according to the protocol for IL2 release described above. Stimulated cells were resuspended in TBS and mixed at equal parts with sample buffer and heated for five minutes at 95° C. A sodium dodecyl sulfate polyacrylamide gel was prepared to separate the proteins achieved from the lysed T-cells. After electrophoresis proteins were transferred from the gel to a membrane. After blocking the membrane with BSA 3% in TBST over night at 4° C., the first antibody mouse anti-NFATc1 was incubated for 2 hours at room temperature. After five times washing with TBST 0.1% Tween, the membrane was incubated with the second antibody anit-mouse IgG HRP for one hour at room temperature. The membrane was dried and treated with West Pico or West Femto Super Signal Solution according to the manufactures protocol to evaluate the chemo-luminescence signal.
# NFATc1 in human T-cells = test: Western blot for NFATc1; assay type: cell-based; conditions: CsA 5 μg/mL, T20K 4 μM; compared to V10K, PHA-L, PMA/Ionomycin
# Experimental: as §1, §2
smiles,measurement,setting,value
"CC(C)C[C@@H]1NC(=O)CNC(=O)[C@H](CC(N)=O)NC(=O)[C@H](CCCNC(=N)N)NC(=O)[C@H]([C@@H](C)O)NC(=O)[C@@H]2CSSC[C@@H]3NC(=O)[C@H]([C@@H](C)O)NC(=O)CNC(=O)CNC(=O)[C@H](C(C)C)NC(=O)[C@@H]4CSSC[C@H](NC(=O)[C@H](CCCCN)NC(=O)[C@H](CSSC[C@H](NC(=O)[C@H](C(C)C)NC(=O)[C@@H]5CCCN5C1=O)C(=O)NCC(=O)N[C@@H](CCC(=O)O)C(=O)N[C@@H]([C@@H](C)O)C(=O)N4)NC(=O)CNC(=O)[C@@H]1CCCN1C(=O)[C@H]([C@@H](C)O)NC(=O)[C@H](CC(N)=O)NC3=O)C(=O)N[C@@H](CO)C(=O)N[C@@H](Cc1c[nH]c3ccccc13)C(=O)N1CCC[C@H]1C(=O)N[C@@H](C(C)C)C(=O)N2 [Kalata T20K] (cyclo(CGETCVGGTCNTPGCKCSWPVCTRNGLPV); disulfide 1-15, 5-17, 10-22 (inferred); ring closure inferred)",NFATc1 signal in mouse splenic T-cells,[1],reduced NFATc1 signal
same,NFATc1 signal in human T-cells,NFATc1 in human T-cells,reduced signal of NFATc1
